Assay results taken from PMC5462828 (Scientific Reports, 2017).

Experiments:
[1] = tested on: THP-1 cells; parameters: method as in PMID 23764525; conditions: cited from earlier work
[2] = molecular target: T1, RXFP1 (Homo sapiens, UniProt Q9HBX9); assay: ERK1/2 phosphorylation (Surefire) in HEK-RXFP1 cells; format: cell-based; parameters: expressed in transfected cells; host or cells: HEK293T / HEK293 cells stably expressing RXFP1 (HEK-RXFP1); conditions: ML290 10 μM, 10 min pretreatment
T1 sequence (Q9HBX9 1-757): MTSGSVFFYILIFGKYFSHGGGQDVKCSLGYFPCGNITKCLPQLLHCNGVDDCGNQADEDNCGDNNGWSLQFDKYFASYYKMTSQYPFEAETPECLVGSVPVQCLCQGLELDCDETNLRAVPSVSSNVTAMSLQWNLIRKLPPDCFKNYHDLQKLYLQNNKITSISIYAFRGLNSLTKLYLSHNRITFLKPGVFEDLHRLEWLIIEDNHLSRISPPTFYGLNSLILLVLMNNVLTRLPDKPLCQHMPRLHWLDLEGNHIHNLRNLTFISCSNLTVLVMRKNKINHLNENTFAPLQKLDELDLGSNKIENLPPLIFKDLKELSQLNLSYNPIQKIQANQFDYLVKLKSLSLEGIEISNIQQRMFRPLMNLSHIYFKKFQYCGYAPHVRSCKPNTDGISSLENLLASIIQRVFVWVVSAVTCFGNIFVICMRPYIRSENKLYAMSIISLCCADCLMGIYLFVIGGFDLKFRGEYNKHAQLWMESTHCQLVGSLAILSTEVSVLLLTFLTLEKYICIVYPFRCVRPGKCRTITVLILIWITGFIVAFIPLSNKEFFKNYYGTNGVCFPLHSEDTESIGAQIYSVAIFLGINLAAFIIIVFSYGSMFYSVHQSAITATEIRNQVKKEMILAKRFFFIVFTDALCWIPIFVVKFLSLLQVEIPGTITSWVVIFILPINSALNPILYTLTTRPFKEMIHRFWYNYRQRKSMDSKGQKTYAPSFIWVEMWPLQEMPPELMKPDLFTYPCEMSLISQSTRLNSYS
Protocol: (§1) p-ERK1/2, p-p38MAPK and p-JNK1/2 was measured using the Surefire ERK, p38 and JNK kits (TGR BioSciences, Australia) as described previously, [16]. Briefly, HEK-RXFP1 cells were plated into 96-well plates (5 × 10^4 cells/well) and primary cells grown in 24-well plates (1 × 10^5 cells/well) overnight to achieve a confluent monolayer. Prior to stimulation, HEK293 cells were serum-starved with DMEM containing 0.5% (v/v) FBS and primary cells in M199 medium for 4–6 hours. […] Levels of p-ERK1/2, p-p38MAPK and p-JNK1/2/3 were detected as per manufacturer’s instructions (Perkin-Elmer, Australia).

[3] = tested on: human RXFP1; conditions: cited from earlier work
[4] = tested on: RXFP2; conditions: cited from earlier work
[5] = tested on: human RXFP1; conditions: cited from earlier work; remark: listed apart in the source
[6] = tested on: p-Smad2; assay: Smad2 phosphorylation assay in human cardiac fibroblasts; format: cell-based; conditions: 72 hours
Protocol: Cells were serum-starved in M199 medium for 24 hours prior sample collection. Cells were used between passages 1–4, while all experiments were performed four separate times in duplicate. Levels of p-Smad2 and p-Smad3 were detected using Sure-fire kits according to the manufacturer’s instructions (Perkin-Elmer, Australia).

[7] = tested on: monkey RXFP1; parameters: method as in PMID 26866459; conditions: cited from earlier work
[8] = tested on: RXFP1; assay: ERK1/2 phosphorylation (Surefire) in human primary vascular cells and cardiac fibroblasts; format: cell-based; conditions: HUAEC
Protocol: as §1

[9] = molecular target: T1, RXFP1; assay: p38MAPK phosphorylation (Surefire) in HEK-RXFP1 cells; format: cell-based; parameters: expressed in transfected cells; host or cells: HEK293T / HEK293 cells stably expressing RXFP1 (HEK-RXFP1)
Protocol: as §1

[10] = tested on: RXFP3; parameters: method as in PMID 23764525; conditions: cited from earlier work
[11] = molecular target: T1, RXFP1; assay: cAMP accumulation in human primary vascular cells and cardiac fibroblasts; format: cell-based; conditions: for Emax: 30 min
Protocol: (§2) cAMP and cGMP accumulation was determined as previously described, [16]. Briefly, HEK293 cells were plated in 96-well plates (5 × 10^4 cells/well) and human primary cells were plated into 24-well plates (1 × 10^5 cells/well) and grown overnight to achieve a confluent monolayer. Prior to stimulation, HEK cells were serum-starved in DMEM containing 0.5% FBS v/v and primary cells were serum-starved in M199 medium for 4–6 hours. Where appropriate, cells were pre-incubated with mSIRK (5 μM, 30 min), mSIRK control peptide L9A (5 μM, 30 min), gallein (100 μM, 30 min), Wortmannin (100 nM, 30 min), NF023 (10 μM, 30 min) and NF449 (10 μM, 30 min). Levels of cAMP and cGMP were detected according to the manufacturer’s instructions (Perkin-Elmer, Australia).

[12] = tested on: RXFP1; assay: as above; format: cell-based; conditions: HUAEC, cells known not to express cell surface RXFP1; 30 min
Protocol: as §2

[13] = molecular target: T1, RXFP1; assay: cAMP accumulation in HEK-RXFP1 cells; format: cell-based; parameters: expressed in transfected cells; host or cells: HEK293T / HEK293 cells stably expressing RXFP1 (HEK-RXFP1); conditions: read-out: cAMP accumulation efficacy (Emax)
Protocol: as §2

[14] = tested on: LDLa mutant receptors; conditions: cited from earlier work
[15] = parameters: method as in PMID 23764525; conditions: cited from earlier work
[16] = tested on: AVPR1B; parameters: method as in PMID 23764525; conditions: cited from earlier work

In the case of CC(C)Oc1ccccc1C(=O)Nc1ccccc1C(=O)Nc1cccc(S(=O)(=O)C(F)(F)F)c1 [ML290, 2-Isopropoxy-N-(2-(3-(trifluoromethylsulfonyl)phenylcarbamoyl)phenyl) benzamide], the VEGF expression [1] is listed as “increased VEGF expression”, the “effect of pretreatment on maximum p-ERK1/2 response to relaxin” value [2] is listed as “significantly increased” and the “agonist action at human RXFP1” value [3] is listed as “activates”. For the same molecule, the “action at RXFP2” value [4] was “little or no action”, the “competition for 125I-H2 relaxin binding” value [5] was “does not compete” and the “effect on p-Smad2 levels” value ([6]; HCFs not treated with TGF-β1, H2 relaxin 0.1 μM, ML290 1 μM) was “neither H2 relaxin (0.1 μM) nor ML290 (1 μM) significantly affected”. For the same molecule, the “p-Smad2 in TGF-β1-stimulated cells” value ([6]; HCFs, TGF-β1 2 ng/ml + H2 relaxin 0.1 μM or ML290 1 μM) was 1.58 ± 0.34 fold/basal, the “agonist action at monkey RXFP1” value [7] was “activates” and the ERK1/2 phosphorylation [8] was “did not cause ERK1/2 phosphorylation”. The Emax ([9]; 15 min, read-out: p-p38MAPK efficacy (Emax) (converted)) was 16.9%, the “p38MAPK phosphorylation, time course” value ([9]; up to 45 min, H2 relaxin 100 nM, ML290 100 nM or 10 μM) was “increased p38MAPK phosphorylation” and the “action at RXFP3” value [10] was “little or no action”. The Emax ([11]; HUVEC, read-out: cAMP accumulation efficacy (Emax), HUVEC) was 11.7%, the “potency for cAMP accumulation, less potent than H2 relaxin” value ([11]; human primary vascular cells) was 3 orders of magnitude and the Emax ([11]; read-out: cAMP accumulation efficacy (Emax), HCAEC) was 17.9%. For the same molecule, the Emax ([11]; read-out: cAMP accumulation efficacy (Emax), HUASMC) was 11.9%, the cAMP accumulation [12] was “did not cause cAMP accumulation” and the Emax [13] was 113%. The “cAMP production with LDLa mutant receptors” value [14] was “still activates cAMP production”, the T1/2 in heart ([15]; heart) was 7.48 h and the tissue distribution ([15]; heart) was “concentrated in the heart”. For the same molecule, the plasma half-life ([15]; mice) was 8.56 h, the toxicity ([15]; mice) was “without obvious toxicity” and the T1/2 in plasma ([15]; plasma) was 8.56 h. The “action at AVPR1B” value [16] was “little or no action”.
